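Step 1: Grow cells in 96-well plates. Step 2: Expose to compound for 48 hours at 5 concentrations. Step 3: Interpolate endpoints linearly; if unreached, use highest concentration. The concentration for full growth arrest is given as TGI.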
Key:
Assay in all cases: NCI anticancer screen, dose series, 48 h
SR leukemia = test system: SR leukemia
HT29 colon = test system: HT29 colon
UO-31 renal = test system: UO-31 renal
OVCAR-3 ovarian = test system: OVCAR-3 ovarian
OVCAR-4 ovarian = test system: OVCAR-4 ovarian
DU-145 prostate = test system: DU-145 prostate
RPMI-8226 leukemia = test system: RPMI-8226 leukemia
NCI-H23 lung = test system: NCI-H23 lung
CAKI-1 renal = test system: CAKI-1 renal
MALME-3M melanoma = test system: MALME-3M melanoma
HOP-62 NSCLC = test system: HOP-62 NSCLC
UACC-257 melanoma = test system: UACC-257 melanoma
SK-OV-3 ovarian = test system: SK-OV-3 ovarian
RXF 393 renal = test system: RXF 393 renal
HS 578T breast = test system: HS 578T breast
COLO 205 colon = test system: COLO 205 colon
SN12C renal = test system: SN12C renal
SK-MEL-28 melanoma = test system: SK-MEL-28 melanoma
HCT-116 colon = test system: HCT-116 colon
IGROV1 ovarian = test system: IGROV1 ovarian

COC1OC(COC(=O)NCCCCC(=O)C(F)(F)F)C(O)C(O)C1O (stereo not drawn)
TGI (SR leukemia): > 100 µM
TGI (HT29 colon): > 100 µM
TGI (UO-31 renal): > 100 µM
TGI (OVCAR-3 ovarian): > 100 µM
TGI (OVCAR-4 ovarian): > 100 µM
TGI (DU-145 prostate): > 100 µM
TGI (RPMI-8226 leukemia): > 100 µM
TGI (NCI-H23 lung): > 100 µM
TGI (CAKI-1 renal): > 100 µM
TGI (MALME-3M melanoma): > 100 µM
TGI (HOP-62 NSCLC): > 100 µM
TGI (UACC-257 melanoma): > 100 µM
TGI (SK-OV-3 ovarian): > 100 µM
TGI (RXF 393 renal): > 100 µM
TGI (HS 578T breast): > 100 µM
TGI (COLO 205 colon): > 100 µM
TGI (SN12C renal): > 100 µM
TGI (SK-MEL-28 melanoma): > 100 µM
TGI (HCT-116 colon): > 100 µM
TGI (IGROV1 ovarian): > 100 µM

CN(C)c1ccc(/C=C/c2cc[n+](C)c3ccccc23)cc1
TGI (SR leukemia): 6.51 µM
TGI (HT29 colon): 12.2 µM
TGI (UO-31 renal): > 73.3 µM
TGI (OVCAR-3 ovarian): 13.5 µM
TGI (OVCAR-4 ovarian): 21.4 µM
TGI (DU-145 prostate): 52.2 µM
TGI (RPMI-8226 leukemia): 21.5 µM
TGI (NCI-H23 lung): 12.5 µM
TGI (CAKI-1 renal): 12.2 µM
TGI (MALME-3M melanoma): 17.1 µM
TGI (HOP-62 NSCLC): 16.3 µM
TGI (UACC-257 melanoma): 8.57 µM
TGI (SK-OV-3 ovarian): 27 µM
TGI (RXF 393 renal): 32.8 µM
TGI (HS 578T breast): 14 µM
TGI (COLO 205 colon): 3.2 µM
TGI (SN12C renal): 15 µM
TGI (SK-MEL-28 melanoma): 21.9 µM
TGI (HCT-116 colon): 8.62 µM
TGI (IGROV1 ovarian): 21 µM

CCOC(=O)N1CCN(C(=O)Nc2cccc3ccccc23)CC1
TGI (SR leukemia): > 10 µM
TGI (HT29 colon): > 10 µM
TGI (UO-31 renal): > 10 µM
TGI (OVCAR-3 ovarian): > 10 µM
TGI (OVCAR-4 ovarian): > 10 µM
TGI (DU-145 prostate): > 10 µM
TGI (RPMI-8226 leukemia): > 10 µM
TGI (NCI-H23 lung): > 10 µM
TGI (CAKI-1 renal): > 10 µM
TGI (MALME-3M melanoma): > 10 µM
TGI (HOP-62 NSCLC): > 10 µM
TGI (SK-OV-3 ovarian): > 10 µM
TGI (RXF 393 renal): > 10 µM
TGI (HS 578T breast): > 10 µM
TGI (COLO 205 colon): > 10 µM
TGI (SN12C renal): > 10 µM
TGI (SK-MEL-28 melanoma): > 10 µM
TGI (HCT-116 colon): > 10 µM
TGI (IGROV1 ovarian): > 10 µM

CSc1c(C(=O)Nc2ccc(Cl)cc2)c(N)[nH]c(=O)c1C#N
TGI (SR leukemia): > 100 µM
TGI (HT29 colon): > 66.4 µM
TGI (UO-31 renal): 59 µM
TGI (OVCAR-3 ovarian): 63 µM
TGI (OVCAR-4 ovarian): > 100 µM
TGI (DU-145 prostate): > 100 µM
TGI (RPMI-8226 leukemia): > 100 µM
TGI (NCI-H23 lung): 53.3 µM
TGI (CAKI-1 renal): > 61.1 µM
TGI (MALME-3M melanoma): > 100 µM
TGI (HOP-62 NSCLC): 73 µM
TGI (UACC-257 melanoma): > 93.7 µM
TGI (SK-OV-3 ovarian): > 100 µM
TGI (RXF 393 renal): > 96.3 µM
TGI (HS 578T breast): > 100 µM
TGI (COLO 205 colon): 45.8 µM
TGI (SN12C renal): > 82.2 µM
TGI (SK-MEL-28 melanoma): > 100 µM
TGI (HCT-116 colon): 44.3 µM
TGI (IGROV1 ovarian): > 100 µM

O=C(O)c1cc2c(s1)C(=O)c1sccc1C2=O
TGI (SR leukemia): 8.38 µM
TGI (HT29 colon): 19 µM
TGI (UO-31 renal): 16 µM
TGI (OVCAR-3 ovarian): 15.6 µM
TGI (OVCAR-4 ovarian): 16.1 µM
TGI (DU-145 prostate): 5.85 µM
TGI (RPMI-8226 leukemia): 41.7 µM
TGI (NCI-H23 lung): 4.71 µM
TGI (CAKI-1 renal): 31.8 µM
TGI (MALME-3M melanoma): 0.806 µM
TGI (HOP-62 NSCLC): 11.6 µM
TGI (UACC-257 melanoma): 6.27 µM
TGI (SK-OV-3 ovarian): 41.4 µM
TGI (RXF 393 renal): 16.9 µM
TGI (HS 578T breast): 5.91 µM
TGI (COLO 205 colon): 32.7 µM
TGI (SN12C renal): 6.85 µM
TGI (SK-MEL-28 melanoma): 3.45 µM
TGI (HCT-116 colon): 4.81 µM
TGI (IGROV1 ovarian): 30.9 µM

Cc1cc(C2(c3cc(C)c(O)c(C(=O)O)c3)OS(=O)(=O)c3ccccc32)cc(C(=O)O)c1O
TGI (SR leukemia): > 100 µM
TGI (HT29 colon): > 100 µM
TGI (UO-31 renal): > 100 µM
TGI (OVCAR-3 ovarian): > 100 µM
TGI (OVCAR-4 ovarian): > 100 µM
TGI (DU-145 prostate): > 100 µM
TGI (RPMI-8226 leukemia): > 100 µM
TGI (CAKI-1 renal): > 100 µM
TGI (MALME-3M melanoma): > 100 µM
TGI (HOP-62 NSCLC): > 100 µM
TGI (UACC-257 melanoma): > 100 µM
TGI (SK-OV-3 ovarian): > 100 µM
TGI (RXF 393 renal): > 100 µM
TGI (HS 578T breast): > 100 µM
TGI (COLO 205 colon): > 100 µM
TGI (SN12C renal): > 100 µM
TGI (SK-MEL-28 melanoma): > 100 µM
TGI (HCT-116 colon): > 100 µM
TGI (IGROV1 ovarian): > 100 µM

From PubChem BioAssay (NCI)
